The text below walks through data of US8288552B2, “Dihydropyridone amidesas P2X7 modulators” (Roche Palo Alto LLC, priority 2008, dated 2012).

The target of this assay is T1, P2X7 (UniProt Q99572).
T1 sequence (Q99572 1-595): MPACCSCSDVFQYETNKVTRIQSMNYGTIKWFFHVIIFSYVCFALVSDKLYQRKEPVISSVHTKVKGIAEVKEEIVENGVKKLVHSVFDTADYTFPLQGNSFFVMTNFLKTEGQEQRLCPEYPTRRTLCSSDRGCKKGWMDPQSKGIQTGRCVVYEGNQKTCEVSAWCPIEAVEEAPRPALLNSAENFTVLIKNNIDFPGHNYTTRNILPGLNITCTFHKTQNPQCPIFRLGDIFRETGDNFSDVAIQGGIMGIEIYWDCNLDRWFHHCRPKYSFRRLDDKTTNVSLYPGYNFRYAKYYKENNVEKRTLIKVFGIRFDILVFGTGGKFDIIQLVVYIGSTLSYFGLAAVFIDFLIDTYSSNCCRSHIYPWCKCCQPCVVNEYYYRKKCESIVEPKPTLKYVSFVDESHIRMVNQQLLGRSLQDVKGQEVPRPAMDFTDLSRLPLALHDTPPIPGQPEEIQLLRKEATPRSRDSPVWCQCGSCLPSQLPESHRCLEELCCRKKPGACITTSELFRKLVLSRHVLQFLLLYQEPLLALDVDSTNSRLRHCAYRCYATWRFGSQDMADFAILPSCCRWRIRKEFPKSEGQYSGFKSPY
Put plainly: P2X7 pKi of Table 1. The assay is classed as cell-based. The procedure, abridged: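 Human P2X7 in 1321N1 cells and rat P2X7 in HEK293 cells, loaded with fluo-3 for 1 hr at 37° C, then exposed to antagonist for 20 min at room temperature. BzATP agonist was used at 100 μM final (human) or 5 μM final (rat), with fluorescence read for 5 min. The response was normalized to maximal fluorescence evoked by 5 μM ionomycin.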

What is called pKi is −log10 of the Ki, conventionally taken in molar units. As to `O=C1C[C@H](c2ccc(F)cc2)C(C(=O)Nc2cc(OCCO)c(Cl)cc2Br)=CN1` [Compound 75, (R)-4-(4-Fluoro-phenyl)-6-oxo-1,4,5,6-tetrahydro-pyridine-3-carboxylic acid[2-bromo-4-chloro-5-(2-hydroxy-ethoxy)-phenyl]-amide], the pKi is listed as 6.245.
With `Cc1ccc(C(C)O)cc1NC(=O)C1=CNC(=O)C[C@H]1c1cccc(F)c1` (stereo partly drawn) [Compound 119, (S)-4-(3-Fluoro-phenyl)-6-oxo-1,4,5,6-tetrahydro-pyridine-3-carboxylic acid[5-(1-hydroxy-ethyl)-2-methyl-phenyl]-amide] the figure was 7.2.
